Data on one molecule can be found in patent US20260248812A1, “METHODS OF TREATING CONGENITAL ADRENAL HYPERPLASIA” (Spruce Biosciences, Inc., priority 2019, published 2026).

Series [1] has as its system adults with classic CAH. As to the kind of experiment: Phase 2 clinical study of Compound 3 with glucocorticoid: time matched change of serial hormone profiles (ACTH, 17-OHP, A4). The series is classed as in vivo, human. To be noted: non-dexamethasone subjects; for A4 level profile, time matched change from baseline: 6 am to 8 am. How it is done:
Study Compound 3, a Phase 2, open-label, first-in-CAH-patients, proof-of-concept, dose ranging study, evaluated the safety and efficacy of repeated doses of SPR001 in adults with classic CAH. The population (n=24; with 2 subjects completing 2 cohorts) consisted of subjects with classic CAH that is not adequately controlled despite a stable glucocorticoid regimen based on the assessment of a single hormone at study screening, 17-OHP>800 ng/dl, which is 4 times the upper limit of a normal reference range of 17-OHP level. 17-OHP was chosen as the hormone as an inclusion criterion, as at the time, it represented the state-of-art in CAH for assessment of disease severity and adequacy of glucocorticoid therapy. The study comprised 3 cohorts, Cohort A was a 6-week intra-subject dose escalation treatment period with three 2-week treatment periods of 200 mg […] (QD) (only daily), 600 mg QD and 1000 mg QD without washout between treatment periods. Cohorts B and C consisted of 2-week treatment periods of either 100 bis in die (BID) (twice daily) (Cohort C) or 200 mg BID (Cohort B). At baseline, the following hormones were assessed, 17-OHP, ACTH and A4. The same hormones were assessed at the end of each 2-week treatment period.
A clinical study is conducted involving up to 52 weeks treatment of Compound 3 with concurrent daily glucocorticoid therapy for the treatment of adults with classic CAH. After screening using A4 and ACTH level criteria, eligible patients are enrolled into up to 12 weeks of placebo-controlled treatment followed by 40 weeks of open label treatment and a 4-week washout/safety follow-up period.
(§1) As part of the study, pre and pose concentrations of DEX and cortisol were measured. In some embodiments, the biomarker reduction analysis comprises all subjects.
(§2) A pooled baseline (dotted) and 2 lines (solid) representing two dose groups (doses=200 mg and doses >200 mg) using the percentage change from dose group baseline presented as percentage change from the pooled baseline. The figures are divided by disease control group, poor disease control with highly elevated ACTH and A4 and the good disease control group with ACTH and A4 that is near normal or below normal ranges. Each group has elevated 17-OHP.
as §2, with “In both groups, 17-OHP is elevated above its target (1200 ng/dL). The Y-axis is different with the poor disease control” for “Each”, “exceeding 8000 ng/dL in FIG. 3A and the good disease group was near an upper bound of approximately 3000 ng/dL in FIG. 3B.” for “has elevated 17-OHP.”

Series [2] has as its target CYP3A4 pathway (Homo sapiens, UniProt P08684). As to the kind of experiment: CYP3A4 pathway inhibition (statement). Conditions: dexamethasone is primarily metabolized through the CYP3A4 pathway. The series is classed as in vitro ADME. As to the method:
as §1

CYP3A4 pathway, sequence (P08684 whole entry): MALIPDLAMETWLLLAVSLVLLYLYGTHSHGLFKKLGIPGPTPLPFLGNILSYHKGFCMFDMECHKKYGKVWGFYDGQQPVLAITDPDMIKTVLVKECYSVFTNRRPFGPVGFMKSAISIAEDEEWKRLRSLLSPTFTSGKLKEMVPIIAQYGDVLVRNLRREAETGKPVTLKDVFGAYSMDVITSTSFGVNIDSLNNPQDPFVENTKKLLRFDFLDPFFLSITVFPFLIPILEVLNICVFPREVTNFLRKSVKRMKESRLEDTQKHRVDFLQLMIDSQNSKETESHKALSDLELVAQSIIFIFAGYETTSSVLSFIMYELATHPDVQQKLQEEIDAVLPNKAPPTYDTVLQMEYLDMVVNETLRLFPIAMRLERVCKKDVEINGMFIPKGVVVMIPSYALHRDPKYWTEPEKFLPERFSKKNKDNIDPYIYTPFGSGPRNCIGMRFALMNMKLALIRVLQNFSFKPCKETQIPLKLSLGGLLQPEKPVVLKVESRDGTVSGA

With `CCC(CC)c1cc(C)nc2c(-c3sc(N4CCOCC4)nc3Cl)c(C)nn12` [Compound 3, 4-(4-chloro-5-(2,5-dimethyl-7-(pentan-3-yl)pyrazolo[1,5-a]pyrimidin-3-yl)thiazol-2-yl)morpholine], in series [1] (both poor and good disease control groups, 10 pm to 8 am, FIGS. 3A and 3B), the “17-OHP level, serial hormone profile, time matched change from baseline” value is recorded as “reduced the magnitude of the increase in 17-OHP post 3 am”. Further, the “ACTH level, serial hormone profile, time matched change from baseline” value was “generally maintained the serial profile below the ULN” in series [1] (good disease control group (ACTH and A4 near or below normal), 10 pm to 8 am, FIG. 2B); “reduced the magnitude of the increase in ACTH post 3 am” in series [1] (poor disease control group (highly elevated ACTH and A4), 10 pm to 8 am, doses =200 mg and >200 mg, FIG. 2A). Further, the “A4 level profile, time matched change from baseline” value in series [1] (good disease control group, FIG. 4B) is recorded as “further reduce A4 level compared to the baseline level”; in series [1] (poor disease control group, blended gender based ULN approximately 212 ng/dL, FIG. 4A) it was “improves the A4 profile in subjects toward the blended gender based ULN”. In addition, in series [2], the “inhibition of the CYP3A4 pathway” value is given as “inhibitor of the CYP3A4 pathway”.
